pEC50: −log10 of the molar value.
Experiments:
Assay type in all cases: cell-based
[1] = test system: Human dermal fibroblasts from Friedreich's Ataxia patients; assay: Rescue of BSO-stressed FRDA fibroblasts (Calcein AM viability); conditions: BSO-stressed FRDA fibroblasts (GM04078), less than about 150 nM, read-out: EC50, protection against FRDA
Procedure, shortened: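 Patient FRDA fibroblasts (GM04078) seeded at 3,000 cells/well, given serially diluted compound from a 150 μM master solution, then stressed next day with 1 mM BSO.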

[2] = test system: human dermal fibroblasts from Huntington's patients; assay: Rescue of BSO-stressed fibroblasts from Huntington's patients (screen as Example A); conditions: Fibroblast, BSO-stressed Huntington's fibroblasts (GM 04281), less than about 150 nM, read-out: EC50, protection against Huntington's
Procedure, shortened: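 Coriell Huntington's line GM 04281 plated at 3,000 cells/well and attached overnight at 37 °C. Survival was read by Calcein AM (1.2 μM, 50-70 min, RT) fluorescence at 485/525 nm, giving EC50.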

[3] = test system: human dermal fibroblasts from LHON patients; assay: Rescue of BSO-stressed fibroblasts from LHON patients (screen as Example A); conditions: Fibroblast, BSO-stressed LHON fibroblasts (GM03858), less than about 150 nM, read-out: EC50, protection against LHON
Procedure, shortened: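 LHON patient fibroblasts (Coriell GM03858) at 3,000 cells/well were pre-treated overnight with compounds serially diluted from a 150 μM master solution. Surviving cells were stained with 1.2 μM Calcein AM for 50-70 min at RT and read by fluorescence (485/525 nm), giving EC50.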

[4] = test system: human dermal fibroblasts from Parkinson's Disease patients; assay: Rescue of BSO-stressed fibroblasts from Parkinson's Disease patients (screen as Example A); conditions: Fibroblast, BSO-stressed Parkinson's Disease fibroblasts (AG20439), less than about 150 nM, read-out: EC50, protection against PD
Procedure: (§1) A culture with FRDA fibroblasts was started from a 1 ml vial with approximately 500,000 cells stored in liquid nitrogen. Cells were propagated in 10 cm cell culture dishes by splitting every third day in a ratio of 1:3 until nine plates were available. Once confluent, fibroblasts were harvested. For 54 micro titer plates (96 well-MTP) a total of 14.3 million cells (passage eight) were re-suspended in 480 ml medium, corresponding to 100 μl medium with 3,000 cells/well. The remaining cells were distributed in 10 cm cell culture plates (500,000 cells/plate) for propagation. The plates were incubated overnight at 37° C. in an atmosphere with 95% humidity and 5% CO2 to allow attachment of the cells to the culture plate.
(§2) MTP medium (243 μl) was added to a well of the microtiter plate. The test compounds were unfrozen, and 7.5 μl of a 5 mM stock solution was dissolved in the well containing 243 μl medium, resulting in a 150 μM master solution. Serial dilutions from the master solution were made. The period between the single dilution steps was kept as short as possible (generally less than 1 second).
(§3) Plates were kept overnight in the cell culture incubator. The next day, 10 μl of a 10 mM BSO solution were added to the wells, resulting in a 1 mM final BSO concentration. Forty-eight hours later, three plates were examined under a phase-contrast microscope to verify that the cells in the 0% control (wells E1-H1) were clearly dead. The medium from all plates was discarded, and the remaining liquid was removed by gently tapping the plate inversed onto a paper towel.
(§4) 100 μl of PBS containing 1.2 μM Calcein AM were then added to each well. The plates were incubated for 50-70 minutes at room temperature. After that time the PBS was discarded, the plate gently tapped on a paper towel and fluorescence (excitation/emission wavelengths of 485 nm and 525 nm, respectively) was read on a Gemini fluorescence reader. Data was imported into Microsoft Excel (EXCEL is a registered trademark of Microsoft Corporation for a spreadsheet program) and used to calculate the EC50 concentration for each compound.
Compounds of the invention were screened as described in Example A, but substituting FRDA cells with Parkinson's Disease (PD) cells obtained from the Coriell Cell Repositories (Camden, N.J.; repository number AG20439). The compounds were tested for their ability to rescue human dermal fibroblasts from Parkinson's Disease patients from oxidative stress.

[5] = test system: human dermal fibroblasts from CoQ10 deficient patients; assay: Rescue of BSO-stressed fibroblasts from CoQ10 deficient patients (screen similar to Example A); conditions: Fibroblast, BSO-stressed fibroblasts from CoQ10 deficient patients harboring a CoQ2 mutation, less than about 150 nM, read-out: EC50, protection against CoQ10 deficiency
Procedure: as §1, §2, §3, §4
Compounds of the invention were tested using a screen similar to the one described in Example A, but substituting FRDA cells with cells obtained from CoQ10 deficient patients harboring a CoQ2 mutation. The compounds were tested for their ability to rescue human dermal fibroblasts from CoQ10 deficient patients from oxidative stress.

Measured: pEC50

CC1=C(C)C(=O)C(CCC(C)(C)C(N)=O)=C(C)C1=O [2,2-dimethyl-4-(2,4,5-trimethyl-3,6-dioxocyclohexa-1,4-dienyl)butanamide]
> 6.82: all assays above

CC1=C(C)C(=O)C(CCCC(=O)N2CCc3ccccc3C2)=C(C)C1=O [2-(4-(3,4-dihydroisoquinolin-2(1H)-yl)-4-oxobutyl)-3,5,6-trimethylcyclohexa-2,5-diene-1,4-dione]
> 6.82: all assays above

CC1=C(C)C(=O)C(CCCC(=O)N2CCc3ccccc32)=C(C)C1=O [2-(4-(indolin-1-yl)-4-oxobutyl)-3,5,6-trimethylcyclohexa-2,5-diene-1,4-dione]
> 6.82: all assays above

CC1=C(C)C(=O)C(CCCC(=O)N2Cc3ccccc3C2)=C(C)C1=O [2-(4-(isoindolin-2-yl)-4-oxobutyl)-3,5,6-trimethylcyclohexa-2,5-diene-1,4-dione]
> 6.82: all assays above

CC1=C(C)C(=O)C(CCCC(N)=O)=C(C)C1=O [4-(2,4,5-trimethyl-3,6-dioxocyclohexa-1,4-dienyl)butanamide]
> 6.82: all assays above

CC1=C(C)C(=O)C(CCCC(=O)Nc2ccc3c(c2)OCCO3)=C(C)C1=O [N-(2,3-dihydrobenzo[b][1,4]dioxin-6-yl)-4-(2,4,5-trimethyl-3,6-dioxocyclohexa-1,4-dienyl)butanamide]
not listed: [4]
> 6.82: all other assays above

CC1=C(C)C(=O)C(CCCC(=O)Nc2ccc(Cl)cc2N)=C(C)C1=O [N-(2-amino-4-chlorophenyl)-4-(2,4,5-trimethyl-3,6-dioxocyclohexa-1,4-dienyl)butanamide]
> 6.82: all assays above

CC1=C(C)C(=O)C(CCCC(=O)NCc2ccccc2Cl)=C(C)C1=O [N-(2-chlorobenzyl)-4-(2,4,5-trimethyl-3,6-dioxocyclohexa-1,4-dienyl)butanamide]
> 6.82: all assays above

CC1=C(C)C(=O)C(CCCC(=O)NCCc2ccccc2Cl)=C(C)C1=O [N-(2-chlorophenethyl)-4-(2,4,5-trimethyl-3,6-dioxocyclohexa-1,4-dienyl)butanamide]
> 6.82: all assays above

CC1=C(C)C(=O)C(CCCC(=O)Nc2ccccc2Cl)=C(C)C1=O [N-(2-chlorophenyl)-4-(2,4,5-trimethyl-3,6-dioxocyclohexa-1,4-dienyl)butanamide]
> 6.82: all assays above

CC1=C(C)C(=O)C(CCCC(=O)NCc2ccccc2F)=C(C)C1=O [N-(2-fluorobenzyl)-4-(2,4,5-trimethyl-3,6-dioxocyclohexa-1,4-dienyl)butanamide]
> 6.82: [2] | [4] | [5]

CC1=C(C)C(=O)C(CCCC(=O)NCCc2ccccc2F)=C(C)C1=O [N-(2-fluorophenethyl)-4-(2,4,5-trimethyl-3,6-dioxocyclohexa-1,4-dienyl)butanamide]
> 6.82: all assays above

CC1=C(C)C(=O)C(CCCC(=O)Nc2ccccc2F)=C(C)C1=O [N-(2-fluorophenyl)-4-(2,4,5-trimethyl-3,6-dioxocyclohexa-1,4-dienyl)butanamide]
> 6.82: all assays above

COc1ccccc1NC(=O)CCCC1=C(C)C(=O)C(C)=C(C)C1=O [N-(2-methoxyphenyl)-4-(2,4,5-trimethyl-3,6-dioxocyclohexa-1,4-dienyl)butanamide]
> 6.82: all assays above

COc1ccc(NC(=O)CCCC2=C(C)C(=O)C(C)=C(C)C2=O)cc1OC [N-(3,4-dimethoxyphenyl)-4-(2,4,5-trimethyl-3,6-dioxocyclohexa-1,4-dienyl)butanamide]
> 6.82: all assays above

CC1=C(C)C(=O)C(CCCC(=O)NCc2cccc(Cl)c2)=C(C)C1=O [N-(3-chlorobenzyl)-4-(2,4,5-trimethyl-3,6-dioxocyclohexa-1,4-dienyl)butanamide]
not listed: [1]
> 6.82: all other assays above

CC1=C(C)C(=O)C(CCCC(=O)NCCc2cccc(Cl)c2)=C(C)C1=O [N-(3-chlorophenethyl)-4-(2,4,5-trimethyl-3,6-dioxocyclohexa-1,4-dienyl)butanamide]
not listed: [1]
> 6.82: all other assays above

CC1=C(C)C(=O)C(CCCC(=O)Nc2cccc(Cl)c2)=C(C)C1=O [N-(3-chlorophenyl)-4-(2,4,5-trimethyl-3,6-dioxocyclohexa-1,4-dienyl)butanamide]
> 6.82: all assays above

CC1=C(C)C(=O)C(CCCC(=O)Nc2cccc(C#N)c2)=C(C)C1=O [N-(3-cyanophenyl)-4-(2,4,5-trimethyl-3,6-dioxocyclohexa-1,4-dienyl)butanamide]
not listed: [4]
> 6.82: all other assays above

CC1=C(C)C(=O)C(CCCC(=O)NCc2cccc(F)c2)=C(C)C1=O [N-(3-fluorobenzyl)-4-(2,4,5-trimethyl-3,6-dioxocyclohexa-1,4-dienyl)butanamide]
> 6.82: [2] | [4] | [5]

CC1=C(C)C(=O)C(CCCC(=O)NCCc2cccc(F)c2)=C(C)C1=O [N-(3-fluorophenethyl)-4-(2,4,5-trimethyl-3,6-dioxocyclohexa-1,4-dienyl)butanamide]
> 6.82: all assays above

CC1=C(C)C(=O)C(CCCC(=O)Nc2cccc(F)c2)=C(C)C1=O [N-(3-fluorophenyl)-4-(2,4,5-trimethyl-3,6-dioxocyclohexa-1,4-dienyl)butanamide]
not listed: [4]
> 6.82: all other assays above

CC1=C(C)C(=O)C(CCCC(=O)NCC2(O)CC2)=C(C)C1=O [N-((1-hydroxycyclopropyl)methyl)-4-(2,4,5-trimethyl-3,6-dioxocyclohexa-1,4-dienyl)butanamide]
not listed: [4]
> 6.82: all other assays above

CC1=C(C)C(=O)C(CCCC(=O)NCc2ccccc2)=C(C)C1=O [N-benzyl-4-(2,4,5-trimethyl-3,6-dioxocyclohexa-1,4-dienyl)butanamide]
not listed: [1]
> 6.82: all other assays above

— US9090576B2, “2-substituted-p-quinone derivatives for treatment of oxidative stress diseases” (Edison Pharmaceuticals, Inc., priority 2008, dated 2015)
